Legend:
rat DRG neurons = assay: Rat DRG neurons, current-evoked action potential firing; assay type: cell-based
From the text: rDRGs isolation and primary cell culture: Briefly, rat DRGs from all spinal levels were carefully removed and collected in HBSS on ices, connective tissue of the epineurium surrounding the ganglion was removed and cells were dissociated using Collagenase-II and trypsin dissociation solutions. DRGs were dissociated further, passed through glass Pasteur pipettes to obtain single cells. Then dissociation solution was changed to 5% FBS containing DRG neuronal culture medium and plated onto ECL coated 12 mm cover glass.
Additional rDRGs experiments were performed using Lonza primary neonatal rat (Sprague Dawley neonatal; P2,3) DRG neurons (R-DRG-505, Lonza) plated and cultured according to the manufacturer.
Electrophysiology: Cells were used for electrophysiological recording at least 48 hours following rDRG isolation or at least 5 days following cryopreserved rDRG thawing. Round small neurons (20-40 μm in diameter) were selected for electrophysiology recordings, to select for small nociceptive neurons that propagate pain sensation in vivo and that are expressing both Kv7.2/3 and TRPV1 targets. Membrane excitability was monitored using current clamp configuration of the whole-cell patch-clamp technique. Positive current steps of different amplitude were injected (400 ms) to induce spikes trains before and following compound application.

Cav1.2 = Cav1.2 (Homo sapiens, UniProt Q13936); assay: Functional screening panel, Cav1.2; assay type: biochemical; details: read-out: IC/EC50 Cav1.2
Sequence of Cav1.2 (Q13936 whole entry): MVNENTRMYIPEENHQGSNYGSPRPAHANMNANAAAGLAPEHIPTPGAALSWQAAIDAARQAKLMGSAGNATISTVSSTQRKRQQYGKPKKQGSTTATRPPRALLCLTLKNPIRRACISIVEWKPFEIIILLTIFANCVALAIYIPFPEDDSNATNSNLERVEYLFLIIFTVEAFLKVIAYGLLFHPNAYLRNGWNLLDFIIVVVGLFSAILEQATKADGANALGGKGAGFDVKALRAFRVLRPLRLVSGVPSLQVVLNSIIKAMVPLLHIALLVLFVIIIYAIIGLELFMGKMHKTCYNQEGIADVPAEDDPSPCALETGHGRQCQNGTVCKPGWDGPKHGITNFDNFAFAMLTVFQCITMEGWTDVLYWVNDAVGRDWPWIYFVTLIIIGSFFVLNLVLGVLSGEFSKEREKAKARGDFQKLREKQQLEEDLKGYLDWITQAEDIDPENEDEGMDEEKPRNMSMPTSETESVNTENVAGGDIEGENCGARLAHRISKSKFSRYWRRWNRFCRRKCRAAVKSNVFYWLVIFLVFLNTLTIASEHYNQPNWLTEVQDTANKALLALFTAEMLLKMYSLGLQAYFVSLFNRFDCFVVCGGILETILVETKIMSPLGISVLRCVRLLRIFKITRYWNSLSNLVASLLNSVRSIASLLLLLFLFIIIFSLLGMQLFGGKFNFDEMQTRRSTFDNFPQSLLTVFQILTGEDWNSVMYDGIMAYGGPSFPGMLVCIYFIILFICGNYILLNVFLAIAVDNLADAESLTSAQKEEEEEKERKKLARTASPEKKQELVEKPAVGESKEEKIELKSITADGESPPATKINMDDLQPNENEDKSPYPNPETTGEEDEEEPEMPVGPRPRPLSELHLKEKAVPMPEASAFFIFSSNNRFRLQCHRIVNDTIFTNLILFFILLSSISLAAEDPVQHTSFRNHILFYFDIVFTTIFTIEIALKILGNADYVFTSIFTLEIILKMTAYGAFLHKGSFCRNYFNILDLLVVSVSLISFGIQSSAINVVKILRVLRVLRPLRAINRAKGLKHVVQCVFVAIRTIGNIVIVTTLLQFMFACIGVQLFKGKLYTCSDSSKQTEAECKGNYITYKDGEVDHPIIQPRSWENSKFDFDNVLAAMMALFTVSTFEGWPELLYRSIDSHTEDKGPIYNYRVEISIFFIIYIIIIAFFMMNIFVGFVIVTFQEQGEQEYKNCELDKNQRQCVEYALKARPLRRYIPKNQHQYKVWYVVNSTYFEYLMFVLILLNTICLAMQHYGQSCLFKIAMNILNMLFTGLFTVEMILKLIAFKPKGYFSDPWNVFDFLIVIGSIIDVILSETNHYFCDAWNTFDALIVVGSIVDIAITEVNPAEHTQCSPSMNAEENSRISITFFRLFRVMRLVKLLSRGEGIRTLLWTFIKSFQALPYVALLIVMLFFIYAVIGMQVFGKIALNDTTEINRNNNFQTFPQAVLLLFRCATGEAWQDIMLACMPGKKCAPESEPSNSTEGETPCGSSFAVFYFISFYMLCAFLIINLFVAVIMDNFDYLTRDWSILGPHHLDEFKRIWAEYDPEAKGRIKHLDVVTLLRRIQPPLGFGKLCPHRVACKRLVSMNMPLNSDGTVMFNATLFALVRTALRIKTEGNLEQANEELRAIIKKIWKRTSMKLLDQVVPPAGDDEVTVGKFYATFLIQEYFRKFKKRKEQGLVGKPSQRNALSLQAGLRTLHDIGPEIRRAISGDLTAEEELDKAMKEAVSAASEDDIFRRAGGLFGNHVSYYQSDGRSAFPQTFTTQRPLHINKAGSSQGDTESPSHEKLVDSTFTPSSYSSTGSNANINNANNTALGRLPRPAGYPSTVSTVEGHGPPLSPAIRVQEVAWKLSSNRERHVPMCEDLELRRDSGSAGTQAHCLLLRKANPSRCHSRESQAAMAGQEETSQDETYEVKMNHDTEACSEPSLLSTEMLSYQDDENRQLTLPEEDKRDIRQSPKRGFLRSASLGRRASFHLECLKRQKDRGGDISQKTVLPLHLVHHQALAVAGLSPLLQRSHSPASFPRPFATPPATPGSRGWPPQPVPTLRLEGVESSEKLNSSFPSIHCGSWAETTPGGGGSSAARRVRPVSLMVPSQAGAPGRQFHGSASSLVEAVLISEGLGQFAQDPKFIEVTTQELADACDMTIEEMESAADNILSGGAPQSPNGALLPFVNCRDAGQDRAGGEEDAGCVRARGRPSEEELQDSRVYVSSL
Sequence of Cav1.2 (P54289 25-944 partner limits assumed): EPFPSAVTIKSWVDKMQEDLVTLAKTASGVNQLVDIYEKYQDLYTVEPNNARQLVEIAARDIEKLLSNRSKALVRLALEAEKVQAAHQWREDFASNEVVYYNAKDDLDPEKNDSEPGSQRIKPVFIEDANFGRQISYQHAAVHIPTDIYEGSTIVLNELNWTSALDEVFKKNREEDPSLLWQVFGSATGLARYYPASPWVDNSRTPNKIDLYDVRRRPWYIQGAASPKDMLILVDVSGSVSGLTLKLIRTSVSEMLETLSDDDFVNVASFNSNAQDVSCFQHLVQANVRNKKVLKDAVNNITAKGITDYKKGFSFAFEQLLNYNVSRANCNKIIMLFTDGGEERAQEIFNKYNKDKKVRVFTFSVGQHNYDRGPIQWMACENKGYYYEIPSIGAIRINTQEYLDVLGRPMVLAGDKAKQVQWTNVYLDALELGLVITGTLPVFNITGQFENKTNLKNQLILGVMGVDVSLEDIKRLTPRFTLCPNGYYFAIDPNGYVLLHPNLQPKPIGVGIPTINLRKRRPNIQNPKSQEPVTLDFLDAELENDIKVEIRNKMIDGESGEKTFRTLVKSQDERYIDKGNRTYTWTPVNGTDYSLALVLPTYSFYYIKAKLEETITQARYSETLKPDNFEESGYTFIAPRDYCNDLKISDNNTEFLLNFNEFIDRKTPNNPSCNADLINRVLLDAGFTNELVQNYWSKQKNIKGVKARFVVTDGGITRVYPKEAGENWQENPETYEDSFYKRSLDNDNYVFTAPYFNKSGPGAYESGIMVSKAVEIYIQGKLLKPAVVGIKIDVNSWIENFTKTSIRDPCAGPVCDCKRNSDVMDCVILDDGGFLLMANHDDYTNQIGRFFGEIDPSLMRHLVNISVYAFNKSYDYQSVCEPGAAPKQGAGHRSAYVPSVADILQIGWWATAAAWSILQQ
Sequence of Cav1.2 (P54289 945-1103 partner limits assumed): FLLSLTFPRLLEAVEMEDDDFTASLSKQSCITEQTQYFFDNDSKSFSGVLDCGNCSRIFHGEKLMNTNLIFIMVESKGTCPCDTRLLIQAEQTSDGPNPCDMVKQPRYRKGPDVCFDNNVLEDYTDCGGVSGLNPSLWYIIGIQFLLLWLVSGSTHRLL
Experimental: (§1) A broad panel of 78 recombinant targets was tested for pharmacologic activity in vitro through a variety of functional assays (Eurofins DiscoverX, USA), as part of the National Institute of Neurological Disorders and Stroke (NINDS) Preclinical Screening Platform for Pain (PSPP) program. The biological targets for the in vitro profiling have been selected based on avoiding opioid receptor stimulation and targets known to be associated with adverse events or targeted by drugs of abuse. […] For each test, a reference compound was evaluated at the target of interest as a positive control.

Bradykynin B1-2 = assay: Functional screening panel, Bradykynin B1-2; assay type: biochemical; details: up to 10 micromolar
Experimental: as §1

Cannabinoid CB1-2 = assay: Functional screening panel, Cannabinoid CB1-2; assay type: biochemical; details: up to 10 micromolar
Experimental: as §1

P-gp = P-gp (Homo sapiens, UniProt P08183); assay: Transporter substrate, P-gp; assay type: in vitro ADME; details: role: substrate
Experimental: (§2) Additionally, compound 760 was tested for its capability to act as a transporter substrate for various transporters, and was not found to be a transporter substrate for any of the tested transporters.

BCRP = assay: Transporter substrate, BCRP; assay type: in vitro ADME; details: role: substrate
Experimental: as §2

OCT1 = OCT1 (Homo sapiens, UniProt O15245); assay: Transporter substrate, OCT1; assay type: in vitro ADME; details: role: substrate
Experimental: as §2

[1] = Plasma protein binding, human; assay type: in vitro ADME; details: read-out: PPB fu (human)
Experimental: Incubation: Test compounds or the positive control warfarin were introduced into 10% plasma samples (Sourced from WuXi DMPK labs or from commercial vendors) to a concentration of 2 μM. A portion of 150 μL of the compound-containing plasma sample was added to one chamber of a 96-well equilibrium HTD dialysis plate. An equal volume of dialysis buffer was added to the corresponding chamber. A plasma sample was also taken before the incubation and designated as the T0 sample, serving for recovery calculation. The plate was incubated in a humidified 5% CO2 incubator at 37° C. for 4 hours. Each incubation was set up in triplicate.
Sample extraction and preparation: Following the incubation period, samples of 50 μL were drawn from both the plasma side and the buffer side and each was mixed with an equal volume of blank plasma. All matrix-matched samples were quenched using a stop solution containing an internal standard (IS).
Sample Analysis: The samples were subsequently analyzed by LC-MS/MS. The concentrations of the test compound in plasma and buffer samples were quantified based on the peak area ratio of analyte to the internal standard, with no requirement for a standard curve.

rats = assay: Modified Irwin test; assay type: in vivo, rat; details: up to 300 mg/kg, male and female
Experimental: Twenty male and twenty female Sprague Dawley rats from Envigo were used in the study. […] Rats were housed in cages containing BedO'Cob® bedding with Nylabones® for enrichment. All rats were examined, handled, and weighed prior to initiation of the study to ensure adequate health and suitability. During the study, 12/12 light/dark cycles were maintained. The room temperature was maintained between 2° and 23° C. with a relative humidity maintained around 50%. […] The test was performed during the animal's light cycle phase (6 am to 6 μm), with observations targeted to be carried out between 8 am and 2 μm. Each vehicle or dose group contained 8 rats, 4 males and 4 females.
The day prior to assessment, rats were single housed in clean rat polycarbonate cages and food was removed. Animals were allocated to different groups based on body weight, under the concurrent restriction that cage mates could not be in the same treatment groups. […]
On the day of assessment, rats were scored on 39 behaviors (not shown). 1 hour prior to dosing, water was removed from the home cage baseline (BL) and behavioral observations were recorded.
Ten animals were assessed per day over 4 days. One male and one female subject from each treatment group was assessed by the observers in a pre-determined order that differed each day. […]

78 recombinant targets = assay: In-vitro selectivity panel, 78 targets; details: all 9 modulated targets of 78
Experimental: as §1
In addition, based on efficacious exposures in vivo, the separation from other targets is still greater than 1000-fold, further supporting the specificity of the compound's MOA.

dopamine D2 = target: T1, dopamine D2 (Homo sapiens, UniProt P14416); assay: Functional selectivity panel, dopamine D2; assay type: biochemical
T1 construct: Eurofins DiscoverX, USA
T1 sequence (P14416 whole entry): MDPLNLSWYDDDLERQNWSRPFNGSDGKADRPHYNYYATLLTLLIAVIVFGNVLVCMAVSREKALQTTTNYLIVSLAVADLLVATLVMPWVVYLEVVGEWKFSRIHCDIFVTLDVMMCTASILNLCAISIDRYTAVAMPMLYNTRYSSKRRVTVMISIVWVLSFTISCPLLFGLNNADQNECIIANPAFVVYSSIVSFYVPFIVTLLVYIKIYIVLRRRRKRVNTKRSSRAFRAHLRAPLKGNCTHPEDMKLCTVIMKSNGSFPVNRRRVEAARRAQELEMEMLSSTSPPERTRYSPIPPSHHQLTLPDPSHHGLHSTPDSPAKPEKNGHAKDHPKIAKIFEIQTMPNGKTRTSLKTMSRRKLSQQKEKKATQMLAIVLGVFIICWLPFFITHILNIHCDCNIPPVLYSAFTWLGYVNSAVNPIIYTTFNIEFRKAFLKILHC
Experimental: as §1

5-HT1B = target: T2, 5-HT1B (Homo sapiens, UniProt P28222); assay: Functional selectivity panel, 5-HT1B; assay type: biochemical
T2 construct: Eurofins DiscoverX, USA
T2 sequence (P28222 whole entry): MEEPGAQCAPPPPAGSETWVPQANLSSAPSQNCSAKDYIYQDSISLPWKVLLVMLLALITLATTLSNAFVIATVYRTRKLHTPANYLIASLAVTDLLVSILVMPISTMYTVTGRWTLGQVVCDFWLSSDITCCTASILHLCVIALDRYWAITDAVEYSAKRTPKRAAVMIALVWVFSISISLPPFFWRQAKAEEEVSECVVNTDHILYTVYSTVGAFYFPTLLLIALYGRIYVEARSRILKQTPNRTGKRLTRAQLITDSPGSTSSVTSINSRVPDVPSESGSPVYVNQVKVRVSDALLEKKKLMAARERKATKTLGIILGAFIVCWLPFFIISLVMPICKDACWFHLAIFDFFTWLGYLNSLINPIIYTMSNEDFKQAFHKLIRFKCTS
Experimental: as §1

hTRPV1 = target: T3, hTRPV1 (Homo sapiens, UniProt Q8NER1); assay: TRPV1 whole-cell electrophysiology, CHO cells expressing hTRPV1 alone; assay type: cell-based
T3 construct: CDS of NM_080704.4, inserted into the multiple cloning site of pcDNA3.1(+); host or cells: CHO/hKv7.2/3
T3 sequence (Q8NER1 whole entry): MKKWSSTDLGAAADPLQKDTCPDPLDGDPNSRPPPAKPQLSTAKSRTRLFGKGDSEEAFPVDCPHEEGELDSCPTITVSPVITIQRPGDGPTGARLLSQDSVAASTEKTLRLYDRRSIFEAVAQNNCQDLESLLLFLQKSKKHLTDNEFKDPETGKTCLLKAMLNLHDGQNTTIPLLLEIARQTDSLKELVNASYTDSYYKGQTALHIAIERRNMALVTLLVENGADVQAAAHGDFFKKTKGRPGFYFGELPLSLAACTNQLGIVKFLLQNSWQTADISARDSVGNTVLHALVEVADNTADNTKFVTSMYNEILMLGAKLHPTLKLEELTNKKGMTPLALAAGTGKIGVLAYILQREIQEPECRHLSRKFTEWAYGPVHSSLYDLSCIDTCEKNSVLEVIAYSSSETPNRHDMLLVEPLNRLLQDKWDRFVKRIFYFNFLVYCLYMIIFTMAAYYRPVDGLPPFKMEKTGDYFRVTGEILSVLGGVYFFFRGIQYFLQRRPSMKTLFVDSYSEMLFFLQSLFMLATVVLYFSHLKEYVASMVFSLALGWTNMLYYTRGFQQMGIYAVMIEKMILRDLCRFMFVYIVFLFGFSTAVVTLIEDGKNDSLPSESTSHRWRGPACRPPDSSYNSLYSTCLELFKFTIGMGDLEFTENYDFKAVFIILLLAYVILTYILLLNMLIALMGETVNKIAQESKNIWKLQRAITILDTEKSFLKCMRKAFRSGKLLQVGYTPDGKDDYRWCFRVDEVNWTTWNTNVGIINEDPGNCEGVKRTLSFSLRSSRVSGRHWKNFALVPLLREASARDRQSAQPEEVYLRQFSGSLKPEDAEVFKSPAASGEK
From the text: Extracellular (Bath) solution: The solution was composed of (in mM): NaCl, 140; KCl, 4; CaCl2, 1.8; MgCl2, 1.2; Glucose, 11; HEPES, 5.5. pH was adjusted to 7.3 with NaOH. Osmolarity was adjusted to 310 mOsm with Sucrose.
Intracellular (Pipette) solution: Pipettes were pulled from borosilicate glass (Warner Instrument Corp, USA) with a resistance of 3-7 MΩ and filled with internal solution composed of (in mM): KCl, 130; MgCl2, 1; K ATP, 5; EGTA, 5; HEPES, 10. pH was adjusted to 7.3 with KOH. Osmolarity was adjusted to 290 mOsm with Sucrose. A programmable valve-linked pressurized perfusion system was used to locally apply compounds nearby the cell recorded, in a consistent flow rate of 2-3 ml/min. Data were sampled at 5 kHz and low pass filtered at 2.4 kHz using MultiClamp 700B amplifier with pCLAMP11 software (Molecular Devices, USA).
[…]. A 3-minute time interval was set between sequential Capsaicin injections to allow its washout and cell recovery. All compounds are injected in the vicinity of the cells using the pressurized perfusion system.
The drug current response, when capsaicin (co-applied with test compound) is injected following >3 minutes of pre-incubation with the test compound, is divided by the averaged control currents, obtained when capsaicin is injection alone, before compound incubation and following its washout, to evaluate the drug/control response.

## Cc1cn(-c2ccc(F)c(CC(=O)NCC(C)(C)O)c2)c2c(Cl)cc(Cl)cc12 [Compound 421-6]
Rat DRG neurons; 100 nM
  Inhibition of current induced AP response: 10.1±3.4%
Rat DRG neurons; 500 nM
  Inhibition of current induced AP response: 51.2±8.4%
Rat DRG neurons; 2 μM
  Inhibition of AP response to current: 77.7±5.6%
Rat DRG neurons; read-out: IC50 for inhibition of current induced AP responses
  IC50: ~0.5 µM

## O=C(Cc1nccc(-n2cc(Cl)c3cc(Cl)cc(Cl)c32)n1)NC1COCC1O (centres unmarked) [Compound 760]
Cav1.2
  IC50: 2.99 µM
Bradykynin B1-2
  Effect on Bradykynin B1-2: no effect
Cannabinoid CB1-2
  Effect on Cannabinoid CB1-2: no effect
P-gp
  P-gp substrate: not a transporter substrate or a poor substrate
BCRP
  BCRP substrate: not a transporter substrate or a poor substrate
OCT1
  OCT1 substrate: not a transporter substrate

## O=C(Cc1cncc(-n2cc(Cl)c3cc(Cl)cc(Cl)c32)c1)N[C@@H]1COC[C@H]1O [Compound 661]
[1]
  fraction unbound at 4 h, 2 µM: 0.003
rats
  Modified Irwin FOB: no effects up to 300 mg/kg
78 recombinant targets
  IC50: > 1.4 µM
Dopamine D2
  IC50: 10 µM
5-HT1B
  IC50: 10 µM

## O=C(Cc1cc(-n2cc(Cl)c3cc(Cl)cc(Cl)c32)ccc1F)NCCO [Compound 627]
hTRPV1
  IC50: 2 µM
hTRPV1; 1.3 μM
  TRPV1 inhibition, hTRPV1 alone: partial TRPV1 inhibition

— patent US20260327211A1, “MODULATORS OF A POTASSIUM CHANNEL AND OF TRPV1 CHANNEL AND USES THEREOF” (Bsense Bio Therapeutics Ltd., priority 2023, published 2026)
